Legend:
[1] = molecular target: T1, FAR-RXRα complex (rat FAR and human RXRα) (Rattus norvegicus, UniProt Q62735, D356M/DEL339-355/E357R/INS337LPDTQTCWKKEFERAAS); test: hsp27-EcRE×5 MTV-luciferase reporter cotransfection in CV-1 cells expressing FAR and RXRα; assay type: cell-based
T1 construct: expressed in transfected cells; host or cells: CV-1 cells, CMV-driven expression vectors
T1 sequence (Q62735 1-469): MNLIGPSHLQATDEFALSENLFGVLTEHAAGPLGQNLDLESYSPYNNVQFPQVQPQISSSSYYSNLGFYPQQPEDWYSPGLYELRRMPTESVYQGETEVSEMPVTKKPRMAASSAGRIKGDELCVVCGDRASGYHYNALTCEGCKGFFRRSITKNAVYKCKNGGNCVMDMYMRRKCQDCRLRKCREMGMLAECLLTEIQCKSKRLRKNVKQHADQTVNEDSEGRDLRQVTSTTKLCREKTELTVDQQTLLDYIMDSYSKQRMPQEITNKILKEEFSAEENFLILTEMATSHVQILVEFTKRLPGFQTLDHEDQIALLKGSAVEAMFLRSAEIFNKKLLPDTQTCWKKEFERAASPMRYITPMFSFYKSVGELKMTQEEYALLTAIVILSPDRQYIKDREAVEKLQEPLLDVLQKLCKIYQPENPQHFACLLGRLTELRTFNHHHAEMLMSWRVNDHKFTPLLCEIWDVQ
T1 sequence (P19793 1-462 partner): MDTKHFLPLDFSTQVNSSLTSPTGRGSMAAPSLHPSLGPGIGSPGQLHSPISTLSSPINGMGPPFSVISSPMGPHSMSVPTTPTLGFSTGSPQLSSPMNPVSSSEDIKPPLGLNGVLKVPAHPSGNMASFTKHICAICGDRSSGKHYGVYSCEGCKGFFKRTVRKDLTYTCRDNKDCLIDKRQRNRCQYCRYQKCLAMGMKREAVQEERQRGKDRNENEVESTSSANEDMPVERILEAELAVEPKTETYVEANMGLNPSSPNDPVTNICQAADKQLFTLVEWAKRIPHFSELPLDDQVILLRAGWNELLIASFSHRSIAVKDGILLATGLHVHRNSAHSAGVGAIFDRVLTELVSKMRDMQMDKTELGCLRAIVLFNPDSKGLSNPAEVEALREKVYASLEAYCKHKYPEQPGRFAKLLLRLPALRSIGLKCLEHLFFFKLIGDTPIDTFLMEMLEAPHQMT
Description: Thus, CV-1 cells were grown in DMEM supplemented with 10% AG1-X8 resin-charcoal stripped calf bovine serum, 50 U/ml penicillin G and 50 μg/ml streptomycin sulfate (DMEM-CBS) at 37° C. in 5% CO2. One day prior to transfection, cells were plated to 50-80% confluence using phenol-red free DMEM with 10% resin charcoal stripped fetal bovine serum (DMEM-FBS). Cells were transfected (with reporter construct (300 ng/10^5 cells), cytomegalovirus driven receptor (100 ng/10^5 cells) and β-galactosidase expression vectors (500 ng/10^5 cells) as indicated in FIG. 4) by lipofection using N-{2-(2,3)-dioleoyloxy)propyl-N,N,N-trimethyl ammonium methyl sulfate} according to the manufacturer's instructions (DOTAP, Boehringer Mannheim). […] Cells were harvested and assayed for luciferase and β-galactosidase activity. […] Data points were normalized for differences in transfection efficiency using β-galactosidase, and plotted as relative activity where the untreated reporter is defined to have an activity of 1 unit.
Based on the identification of an EcRE as a DNA target, a reporter plasmid was constructed containing 5 copies of the hsp27 response element linked to a truncated mouse mammary tumor virus promoter (Yao et al., Nature 366:476-479 (1993)). This reporter was cotransfected into CV-1 cells alone, or with expression vectors for FAR and/or RXRα. Cotransfected cells were treated with a variety of potential ligands and monitored for changes in luciferase activity.
Thus, with reference to FIG. 5A, CV-1 cells were transiently transfected with hsp27-EcRE×5 MTV-luciferase alone (−) or with expression vectors for rat FAR and/or human RXRα. Reporter activity was assayed after treating cells with or without 50 μM JH III.
CV-1 cells were transiently transfected as described above with reference to FIG. 5A, but treated with or without 50 μM JH III, 100 nM LG69 and JH III+LG69.
Thus, CV-1 cells were transiently transfected with expression vectors for rat FR and human RXRα, as described above in Example 3. […] Data is plotted in FIG. 6A as fold activation relative to untreated cells.

HMG-CoA reductase = conditions: by a mevalonate-derived non-sterol; cited from earlier work

| SMILES | activation of FAR-RXRα (in words) ([1]; 50 μM, FIG. 6A) | concentration added to cells at which down-regulation of HMG-CoA reductase activity occurs (HMG-CoA reductase) [µM] | activation of FAR-RXRα (in words) ([1]; 200 μM, cells cotransfected with a mevalonate transporter protein) |
| --- | --- | --- | --- |
| CC(C)=CCC/C(C)=C/CO [geraniol] | little or no activation |  |  |
| CC(C)=CCC/C(C)=C/CC/C(C)=C/CC/C(C)=C/CO [geranylgeraniol] | weaker activity |  |  |
| CC(C)=CCC[C@@H](C)[C@H]1CC[C@@]2(C)C3=C(CC[C@]12C)[C@@]1(C)CC[C@H](O)C(C)(C)[C@@H]1CC3 [lanosterol] | little or no activation |  |  |
| CC(O)(CCO)CC(=O)O (stereo not drawn) [mevalonate] | little or no activation | > 100 | weak activity |
| CC(=O)[C@H]1CC[C@H]2[C@@H]3CC=C4C[C@@H](O)CC[C@]4(C)[C@H]3CC[C@]12C [pregnenolone] | little or no activation |  |  |
| CC(C)=CCC/C(C)=C/CC/C(C)=C/CC/C=C(\C)CC/C=C(\C)CCC1OC1(C)C (stereo not drawn) [squalene epoxide] | little or no activation |  |  |
| CC(C)=CCC/C(C)=C/CC/C(C)=C/CC/C=C(\C)CC/C=C(\C)CCC=C(C)C [squalene] | little or no activation |  |  |

Reference: patent US7439027B2, “Method for modulating process mediated by farnesoid activated receptors” (The Salk Institute for Biological Studies, priority 1995, dated 2008)
